In publication PMC12475274, “Harnessing indole scaffolds to identify small-molecule IRE1α inhibitors modulating XBP1 mRNA splicing” (Nature Communications, 2025):
Several values for one entry are separate records, joined by “and”; a condition that tells them apart may be missing. Equal values may be shown once. Read-outs that look alike come from different tables or passages of the source.

How the values were obtained:
[1] = biological target: T1, dephosphorylated IRE1α (547–977) (Homo sapiens, UniProt O75460); assay: FRET-based IRE1α RNase activity assay, dephosphorylated IRE1α; format: biochemical
T1 construct: Human IRE1α kinase and RNase domain (residues 547–977) was subcloned into pLIB plasmid; His tag (with TEV cleavage site) (N, cleaved yes); made in house; host or cells: Sf9 insect cells, baculovirus (Bac-to-Bac)
Experimental: (§1) Human IRE1α kinase and RNase domain (residues 547–977) was subcloned into pLIB plasmid with a His tag and TEV cleavage site, and expressed using Bac-to-Bac expression system. The primers used are listed in Supplementary Table S3. The protein purification was performed following established procedures. Briefly, Sf9 cells were infected with baculovirus and incubated at 27 °C 110 rpm for 72 h. The cells were collected by centrifugation at 4000 × g for 15 min and the cell pellet was resuspended in lysis buffer (50 mM HEPES pH 7.5, 300 mM NaCl, 10% glycerol, 1 mM MgCl2, 1 mM TCEP, 5 mM imidazole), then supplemented with 1:10,000 benzonase (Sigma, E1014), 1 tablet/25 mL […]™ Protease Inhibitor Cocktail tablets (Sigma, S8830) and 1 mM PMSF before lysed by sonication at 4 °C. […] The protein elution was incubated with TEV protease to remove His tag at 4 °C overnight. Then the sample was diluted 1:6 in buffer (50 mM HEPES pH 7.5, 1 mM TCEP, 5% glycerol) and loaded onto a 5 mL pre-packaged Q HP anion exchange column (Cytiva, HiTrap Q HP) pre-equilibrated with QA buffer (50 mM HEPES pH 7.5, 50 mM NaCl, 1 mM TCEP, 5% glycerol). The unphosphorylated and phosphorylated protein was separated by eluting the protein with a very shallow gradient with 0-30% buffer QB (50 mM HEPES pH 7.5, 1 M NaCl, 1 mM TCEP, 5% glycerol) over 80 CV. Different peaks were collected separately and verified by LC-MS. The fully phosphorylated fraction was collected and further purified by size exclusion chromatography (Cytiva, HiLoad 16/600 Superdex 200 pg,) with SEC buffer (25 mM HEPES pH 7.5, 250 mM NaCl, 1 mM TCEP, 10% glycerol) and fractioned as monomeric peak. The rest protein fraction from the Q HP anion exchange column was incubated with Lambda protein phosphatase (New England BioLabs, P0753S) overnight at 4 °C, the dephosphorylation was confirmed by LC-MS. The unphosphorylated protein was further purified by size exclusion chromatography with the SEC buffer described above. The purified phosphorylated (p-IRE1α) and dephosphorylated (IRE1α) protein aliquots were stored at −80 °C for future usage.
The dual-labeled RNA substrate with a FAM at 5’ and the BHQ-1 at 3’ containing the XBP1 sequence (5′FAM-[…]-3′BHQ1) was purchased from Integrated DNA Technologies (IDT). The FRET-based IRE1α RNase activity assay was carried out in reaction buffer containing 20 mM HEPES pH 7.5, 50 mM KOAc, 1 mM MgOAc2, 1 mM DTT, 0.05% v/v TritonX-100, at a total reaction volume of 20 μL in a 384-well black plate (4514, Corning). For unphosphorylated IRE1α (IRE1α), a final concentration of 40 nM IRE1α protein and 100 nM RNA substrate was used. For phosphorylated IRE1 (p-IRE1α), a final concentration of 4 nM p-IRE1α protein and 200 nM RNA substrate was used. The indicated compound and IRE1α protein were incubated for 30 min at room temperature before the substrate was added to the reaction. The plate was then kinetically read over one hour at room temperature using a TECAN Spark plate reader. The measurement was carried out using the fluorescence top reading mode at the excitation wavelength of 485 nm and the emission wavelength of 535 nm with a 10 nm excitation and emission bandwidth. The linear part of the reaction curve was adopted and fitted with sample linear regression to obtain the slope, and the slope was adopted to reflect the reaction rate. The inhibition % was calculated by using the equation: inhibition% = 100 × (slope of DMSO control – slope of the sample)/(slope of DMSO control – slope of blank control), DMSO control: DMSO with protein and RNA substrate; Blank control: DMSO with RNA substrate. The IC50 values were calculated using the concentration-response model in GraphPad Prism 9. […]

[2] = biological target: T2, phosphorylated IRE1α (p-IRE1α) (Homo sapiens, UniProt O75460); assay: FRET-based IRE1α RNase activity assay, phosphorylated IRE1α; format: biochemical
T2 construct: Human IRE1α kinase and RNase domain (residues 547–977) was subcloned into pLIB plasmid; His tag (with TEV cleavage site) (N, cleaved yes); made in house; host or cells: Sf9 insect cells, baculovirus (Bac-to-Bac)
Experimental: as §1
The dual-labeled RNA substrate with a FAM at 5’ and the BHQ-1 at 3’ containing the XBP1 sequence (5′FAM-[…]-3′BHQ1) was purchased from Integrated DNA Technologies (IDT). The FRET-based IRE1α RNase activity assay was carried out in reaction buffer containing 20 mM HEPES pH 7.5, 50 mM KOAc, 1 mM MgOAc2, 1 mM DTT, 0.05% v/v TritonX-100, at a total reaction volume of 20 μL in a 384-well black plate (4514, Corning). For unphosphorylated IRE1α (IRE1α), a final concentration of 40 nM IRE1α protein and 100 nM RNA substrate was used. For phosphorylated IRE1 (p-IRE1α), a final concentration of 4 nM p-IRE1α protein and 200 nM RNA substrate was used. The indicated compound and IRE1α protein were incubated for 30 min at room temperature before the substrate was added to the reaction. The plate was then kinetically read over one hour at room temperature using a TECAN Spark plate reader. The measurement was carried out using the fluorescence top reading mode at the excitation wavelength of 485 nm and the emission wavelength of 535 nm with a 10 nm excitation and emission bandwidth. The linear part of the reaction curve was adopted and fitted with sample linear regression to obtain the slope, and the slope was adopted to reflect the reaction rate. The inhibition % was calculated by using the equation: inhibition% = 100 × (slope of DMSO control – slope of the sample)/(slope of DMSO control – slope of blank control), DMSO control: DMSO with protein and RNA substrate; Blank control: DMSO with RNA substrate. The IC50 values were calculated using the concentration-response model in GraphPad Prism 9.

[3] = FRET assay, RNase activity, mean (± SEM), read-out: IRE1α IC50
[4] = FRET assay, source data, unit from Fig. 3 / sheet Fig. 2b, read-out: IRE1a IC50, individual replicates (n1-n4)
[5] = FRET assay, RNase activity, mean (± SEM), read-out: p-IRE1α IC50
[6] = FRET assay, source data, unit from Fig. 3, read-out: p-IRE1a IC50, individual replicates (n1-n4)
[7] = IRE1a, individual replicates (n1-n4), Supplementary Fig. 2b, 2c, read-out: IC50
[8] = IRE1a, mean, Supplementary Fig. 2b, 2c, read-out: IC50, mean
[9] = p-IRE1a, individual replicates (n1-n3), Supplementary Fig. 2b, 2c, read-out: IC50
[10] = p-IRE1a, mean, Supplementary Fig. 2b, 2c, read-out: IC50, mean

T2 sequence (O75460 547-977): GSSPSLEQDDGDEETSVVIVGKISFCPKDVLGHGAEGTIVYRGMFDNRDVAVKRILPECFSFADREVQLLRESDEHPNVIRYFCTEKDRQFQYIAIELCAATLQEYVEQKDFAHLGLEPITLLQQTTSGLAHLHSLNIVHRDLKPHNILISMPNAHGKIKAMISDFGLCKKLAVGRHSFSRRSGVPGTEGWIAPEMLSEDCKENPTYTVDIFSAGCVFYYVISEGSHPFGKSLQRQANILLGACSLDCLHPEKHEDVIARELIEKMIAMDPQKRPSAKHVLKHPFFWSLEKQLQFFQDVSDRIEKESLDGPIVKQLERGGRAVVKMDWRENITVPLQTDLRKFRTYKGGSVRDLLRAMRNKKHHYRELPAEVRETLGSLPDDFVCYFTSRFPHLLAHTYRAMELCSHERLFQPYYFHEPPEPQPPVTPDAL
T1 sequence (O75460 547-977): as above

Question: Which “inhibition(%)” value ([1]; IRE1a, 5.55556 μM) does the source give for `Cc1ccc2c(NS(=O)(=O)c3ccccc3Cl)cccc2c1Oc1ncccc1-c1ccnc(N[C@H]2CCCNC2)n1` [AMG18] here?
Answer: 93.95% and 92.37% and 91.58% and 94.22%

Question: And the “inhibition(%)” value ([1]; IRE1a, 16.6667 μM)?
Answer: 92.87% and 92.05% and 91.66% and 92.11%

Question: And the “inhibition(%)” value ([1]; IRE1a, 50 μM)?
Answer: 89.29% and 89.80% and 92.49% and 93.01%

Question: And the “inhibition(%)” value ([2]; p-IRE1a, 5.55556 μM)?
Answer: 100.91% and 100.40% and 100.53% and 99.85%

Question: What about the “inhibition(%)” value ([2]; p-IRE1a, 16.6667 μM) of the same compound?
Answer: 99.21% and 99.54% and 99.79% and 99.45%

Question: And the “inhibition(%)” value ([2]; p-IRE1a, 50 μM)?
Answer: 99.53% and 98.55% and 99.75% and 99.47%

Question: Which IC50 [1, 3] does the source give for `COc1ccc2c(c1)c(CCC(=O)O)c(C)n2C(=O)c1ccc(Br)cc1` [IA02] here?
Answer: 1460 nM

Question: And the IC50 [1, 4]?
Answer: 869 nM and 1330 nM and 2170 nM

Question: And the IC50 [2, 5]?
Answer: 1960 nM

Question: What about the IC50 [2, 6] of the same compound?
Answer: 2090 nM and 2100 nM and 1670 nM

Question: What does the source list for `COc1ccc2c(c1)c(CCC(=O)O)c(C)n2C(=O)c1ccccn1` [IA04]?
Answer: IC50 [1, 3]: 530 nM; IC50 [1, 4]: 337 nM and 1040 nM and 203 nM; IC50 [2, 5]: 820 nM; IC50 [2, 6]: 1590 nM and 458 nM and 394 nM

Question: Which results are given for `COc1ccc2c(c1)c(CCC(=O)O)c(C)n2C(=O)c1ccc2c(c1)C(=O)c1ccccc1C2=O` [IA32]?
Answer: IC50 [1, 3]: 760 nM; IC50 [1, 4]: 589 nM and 971 nM and 1100 nM and 378 nM; IC50 [2, 5]: 610 nM; IC50 [2, 6]: 1080 nM and 593 nM and 159 nM

Question: Which results are given for `COc1ccc2c(c1)c(CCC(=O)O)c(C)n2C(=O)c1cccc(C(F)(F)F)c1` [IA36]?
Answer: IC50 [1, 3]: 100 nM; IC50 [1, 4]: 39.8 nM and 135 nM and 138 nM; IC50 [2, 5]: 60 nM and 56.1 nM; IC50 [2, 6]: 105 nM and 45 nM and 18 nM

Question: How did the IC50 [1, 7] turn out when `Cc1c(CCC(=O)O)c2ccccc2n1C(=O)c1cccc(C#N)c1` [IA41] was run?
Answer: 2320 nM and 4340 nM and 2120 nM

Question: And the IC50 [1, 8]?
Answer: 2930 nM

Question: What about the IC50 [2, 9] of the same compound?
Answer: 4900 nM and 768 nM

Question: What about the IC50 [2, 10] of the same compound?
Answer: 2840 nM

Question: How did the IC50 [1, 7] turn out when `Cc1c(CCC(=O)O)c2ccccc2n1C(=O)c1cccs1` [IA42] was run?
Answer: 1960 nM and 3270 nM and 1050 nM

Question: What about the IC50 [1, 8] of the same compound?
Answer: 2090 nM

Question: What about the IC50 [2, 9] of the same compound?
Answer: 4450 nM and 1100 nM

Question: What about the IC50 [2, 10] of the same compound?
Answer: 2770 nM

Question: With `Cc1c(CCC(=O)O)c2cc(Br)ccc2n1C(=O)c1cccs1` [IA44] as the compound, how does the IC50 [1, 7] read?
Answer: 90 nM and 91.2 nM and 59.1 nM

Question: What about the IC50 [1, 8] of the same compound?
Answer: 80 nM

Question: What about the IC50 [2, 9] of the same compound?
Answer: 168 nM and 34.5 nM

Question: And the IC50 [2, 10]?
Answer: 100 nM

Question: `Cc1c(CCC(=O)O)c2cc(F)ccc2n1C(=O)c1cccc(C#N)c1` [IA47] was tested. Which IC50 [1, 7] did it give?
Answer: 4700 nM and 983 nM and 3620 nM and 1970 nM

Question: And the IC50 [1, 8]?
Answer: 2820 nM

Question: And the IC50 [2, 9]?
Answer: 5260 nM and 7800 nM and 3640 nM

Question: And the IC50 [2, 10]?
Answer: 5570 nM

Question: What does the source list for `Cc1c(CCC(=O)O)c2cc(F)ccc2n1C(=O)c1cccs1` [IA48]?
Answer: IC50 [1, 7]: 542 nM and 383 nM and 121 nM; IC50 [1, 8]: 350 nM; IC50 [2, 9]: 1070 nM and 419 nM and 737 nM; IC50 [2, 10]: 740 nM

Question: Which results are given for `Cc1c(CCC(=O)O)c2cc(Cl)ccc2n1C(=O)c1cccs1` [IA60]?
Answer: IC50 [1, 7]: 117 nM and 90.9 nM and 105 nM; IC50 [1, 8]: 100 nM; IC50 [2, 9]: 244 nM and 461 nM and 90.7 nM; IC50 [2, 10]: 270 nM

Question: How did the IC50 [1, 7] turn out when `Cc1c(CCC(=O)O)c2cc(Cl)ccc2n1C(=O)c1cccc(C#N)c1` [IA63] was run?
Answer: 101 nM and 84.1 nM and 98.1 nM

Question: What about the IC50 [1, 8] of the same compound?
Answer: 90 nM

Question: What about the IC50 [2, 9] of the same compound?
Answer: 204 nM and 404 nM and 78.9 nM

Question: And the IC50 [2, 10]?
Answer: 230 nM

Question: With `COc1ccc2c(c1)c(CCC(=O)O)c(C)n2C(=O)c1ccc(F)cc1` [IA66] as the compound, how does the IC50 [1, 3] read?
Answer: 140 nM

Question: And the IC50 [1, 4]?
Answer: 213 nM and 125 nM and 82.7 nM

Question: What about the IC50 [2, 5] of the same compound?
Answer: 200 nM

Question: What about the IC50 [2, 6] of the same compound?
Answer: 124 nM and 115 nM and 353 nM

Question: For `COc1ccc2c(c1)c(CCC(=O)O)c(C)n2C(=O)c1ccc(N(C)C)cc1` [IA70], which IC50 [1, 3] is on record?
Answer: 320 nM

Question: And the IC50 [1, 4]?
Answer: 473 nM and 234 nM and 244 nM

Question: And the IC50 [2, 5]?
Answer: 730 nM

Question: And the IC50 [2, 6]?
Answer: 505 nM and 1390 nM and 290 nM
